Earlier results, collected in patent US20140154346A1, “USE OF FENUGREEK EXTRACT TO ENHANCE FEMALE LIBIDO” (GE NUTRIENTS, INC., priority 2012, published 2014).

System: women with hypoactive sexual disorder
Conditions: 300 μg/day, 12 months; also increase in desire and decrease in stress

C[C@]12CC[C@H]3[C@@H](CCC4=CC(=O)CC[C@@]43C)[C@@H]1CC[C@@H]2O [testosterone]
frequency of satisfying sexual encounters: increased frequency
